Reference: ChEMBL document CHEMBL1146777, “Interaction with the S1 beta-pocket of urokinase: 8-heterocycle substituted and 6,8-disubstituted 2-naphthamidine urokinase inhibitors” (Bioorg Med Chem Lett, 2004)

How the values were obtained:
Plasminogen = Plasminogen (Homo sapiens, UniProt P00747); assay: Binding affinity against plasmin
Prothrombin = Prothrombin (Homo sapiens, UniProt P00734); assay: Binding affinity against thrombin
[1] = target: Tissue-type plasminogen activator (Homo sapiens, UniProt P00750); assay: Binding affinity towards tissue type plasminogen activator
Tissue-type plasminogen activator, sequence (P00750 whole entry): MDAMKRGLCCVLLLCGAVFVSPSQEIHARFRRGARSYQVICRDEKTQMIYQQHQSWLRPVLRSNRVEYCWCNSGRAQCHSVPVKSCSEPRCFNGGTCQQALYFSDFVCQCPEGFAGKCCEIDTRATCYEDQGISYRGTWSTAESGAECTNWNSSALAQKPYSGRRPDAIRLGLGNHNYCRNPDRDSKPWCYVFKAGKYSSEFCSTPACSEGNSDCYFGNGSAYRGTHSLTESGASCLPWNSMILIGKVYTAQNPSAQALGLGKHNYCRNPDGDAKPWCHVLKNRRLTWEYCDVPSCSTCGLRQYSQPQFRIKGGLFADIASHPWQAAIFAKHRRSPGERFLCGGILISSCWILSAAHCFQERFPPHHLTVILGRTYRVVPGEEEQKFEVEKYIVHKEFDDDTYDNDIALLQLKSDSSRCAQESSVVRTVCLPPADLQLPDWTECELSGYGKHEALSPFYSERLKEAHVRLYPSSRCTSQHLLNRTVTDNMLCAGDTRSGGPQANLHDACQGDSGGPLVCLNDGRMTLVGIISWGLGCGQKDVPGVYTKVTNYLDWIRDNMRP

[2] = target: Urokinase-type plasminogen activator (Homo sapiens, UniProt P00749)
Description: Binding affinity towards Urokinase-type plasminogen activator (urokinase)

Serine protease 1 = Serine protease 1 (Homo sapiens, UniProt P07477); assay: Binding affinity against trypsin
Serine protease 1, sequence (P07477 whole entry): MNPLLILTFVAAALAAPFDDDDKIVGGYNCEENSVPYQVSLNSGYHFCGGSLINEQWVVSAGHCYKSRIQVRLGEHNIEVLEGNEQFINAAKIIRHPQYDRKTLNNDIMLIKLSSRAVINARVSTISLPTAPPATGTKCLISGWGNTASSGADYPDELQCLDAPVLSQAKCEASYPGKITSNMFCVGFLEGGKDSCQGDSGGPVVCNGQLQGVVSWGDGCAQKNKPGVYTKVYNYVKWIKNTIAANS

[3] = Binding affinity against trypsin

Plasminogen, sequence (P00747 97-580 limits assumed): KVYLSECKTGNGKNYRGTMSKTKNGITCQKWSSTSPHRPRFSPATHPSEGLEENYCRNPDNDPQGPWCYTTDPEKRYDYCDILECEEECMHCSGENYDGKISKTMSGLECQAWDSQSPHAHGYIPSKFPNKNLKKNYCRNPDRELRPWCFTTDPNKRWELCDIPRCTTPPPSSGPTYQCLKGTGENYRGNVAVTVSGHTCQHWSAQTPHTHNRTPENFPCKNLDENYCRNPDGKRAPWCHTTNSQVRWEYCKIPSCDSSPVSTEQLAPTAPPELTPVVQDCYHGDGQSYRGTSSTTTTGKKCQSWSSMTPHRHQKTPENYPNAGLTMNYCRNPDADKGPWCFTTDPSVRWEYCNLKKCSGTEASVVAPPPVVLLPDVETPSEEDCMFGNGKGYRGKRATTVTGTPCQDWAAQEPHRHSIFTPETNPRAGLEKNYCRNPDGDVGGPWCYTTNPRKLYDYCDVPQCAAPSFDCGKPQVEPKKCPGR
Plasminogen, sequence (P00747 581-810 limits assumed): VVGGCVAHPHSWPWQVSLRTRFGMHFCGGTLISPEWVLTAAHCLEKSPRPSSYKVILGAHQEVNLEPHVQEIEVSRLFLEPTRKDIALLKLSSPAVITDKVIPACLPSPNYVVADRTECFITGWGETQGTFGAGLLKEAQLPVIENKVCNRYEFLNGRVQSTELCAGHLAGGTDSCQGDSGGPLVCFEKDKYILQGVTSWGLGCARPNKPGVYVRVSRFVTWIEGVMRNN

| SMILES | Ki (Plasminogen) | Ki (Prothrombin) | Ki [1] | Ki [2] | Ki (Serine protease 1) | Ki [3] |
| --- | --- | --- | --- | --- | --- | --- |
| N=C(N)c1ccc2cc(C(=O)Nc3ccccc3)ccc2c1 | – | – | – | – | – | 330 nM |
| CCSc1cc(-c2cc(C(=O)Nc3ccccc3)cc3ccc(C(=N)N)cc23)co1 | 53 nM | 120 nM | 3300 nM | 40 nM | 11 nM | – |
| COc1ccc2ccc(C(=N)N)cc2c1C1CCOC1 (stereo unspecified) | 6000 nM | 450 nM | 7400 nM | – | 320 nM | – |
| COc1ccc2ccc(C(=N)N)cc2c1-c1cnn(S(C)(=O)=O)c1 | 8500 nM | 7100 nM | > 100000 nM | – | 2700 nM | – |
| COc1ccc2ccc(C(=N)N)cc2c1-c1cnn(C)c1 | – | – | – | 4600 nM | – | – |
| N=C(N)c1ccc2cccc(N)c2c1 | 6600 nM | 5200 nM | 27000 nM | – | 200 nM | – |
| COc1ccc2ccc(C(=N)N)cc2c1-c1ccoc1 | 9400 nM | 1300 nM | 18000 nM | – | 1200 nM | – |
| CCS(=O)(=O)c1cc(-c2cc(C(=O)Nc3ccccc3)cc3ccc(C(=N)N)cc23)co1 | 56 nM | 290 nM | 8300 nM | – | 3.5 nM | – |
| N=C(N)c1ccc2ccccc2c1 | – | – | > 100000 nM | – | – | 7800 nM |
| N=C(N)c1ccc2cccc(Nc3ncccn3)c2c1 | 3800 nM | 3200 nM | 24000 nM | – | 1700 nM | – |
| CCS(=O)(=O)c1cc(-c2cc(C(=O)Nc3cccc(OC4CCCC4)c3)cc3ccc(C(=N)N)cc23)co1 | 38 nM | 610 nM | 1600 nM | 2.1 nM | 3 nM | – |

Continued by falling Ki [1], values first:

| Ki (Plasminogen) | Ki (Prothrombin) | Ki [1] | Ki [2] | Ki (Serine protease 1) | Ki [3] | SMILES |
| --- | --- | --- | --- | --- | --- | --- |
| 400 nM | 360 nM | 870 nM | 106 nM | 30 nM | – | N=C(N)c1ccc2cc(C(=O)Nc3ccccc3)cc(C3CCOC3)c2c1 (stereo unspecified) |
| 90 nM | 170 nM | 810 nM | 2 nM | 40 nM | – | [H]/N=C(/N)c1ccc2cc(C(=O)Nc3ccccc3)cc(Nc3ncccn3)c2c1 |
| 150 nM | 940 nM | 680 nM | – | 20 nM | – | N=C(N)c1ccc2cc(C(=O)Nc3ccc(CN)cc3)cc(Nc3ncccn3)c2c1 |
| 320 nM | 130 nM | 180 nM | 91 nM | 45 nM | – | N=C(N)c1ccc2cc(C(=O)Nc3ccccc3)cc(-c3ccoc3)c2c1 |
| 190 nM | 1100 nM | 130 nM | – | 12 nM | – | CC(C)Oc1cccc(NC(=O)c2cc(C3CCOC3)c3cc(C(=N)N)ccc3c2)c1 (stereo unspecified) |
